The source of these data is US9040527B2, “Pyrimidinediamine kinase inhibitors” (Rigel Pharmaceuticals, Inc., priority 2008, dated 2015).

pIC50: −log10 of the molar value. Bounds are passed on as bounds.

Experiment [1] deals with T1, PLK1 (Homo sapiens, UniProt P53350). The experiment in a line: In vitro PLK1 ELISA assay (biochemical). Details: purchased Cell Signalling 7728. The note with it: for IC50: ELISA, CHK2-derived peptide substrate, read-out: PLK1 IC50 (μM) biochemical assay. The procedure, abridged:
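Commercial PLK1 phosphorylates neutravidin-captured biotinylated CHK2 peptide for 45 min at room temperature in HEPES pH 7.2 with Mg2+/Mn2+/DTT, compounds at 10 μM to 0.005 μM. Phospho-CHK2(T68) antibody plus HRP secondary gives chemiluminescent read-out used for IC50.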

Experiment [2] addresses T1, PLK1. Description: Cellular PLK1 assay in K562 cells overexpressing CDC25C. The format is cell-based. Set-up: endogenous in cells; host or cells: K562 (human chronic myelogenous leukemia) overexpressing CDC25C, nocodazole-arrested. The note with it: nocodazole arrested, cdc25c p-Ser198 readout. The procedure, abridged:
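K562 cells overexpressing CDC25C were arrested with 333 nM nocodazole for 18 h at 37 °C, then exposed to compound at 8 points from 10 μM to 0.005 μM in duplicate for 120 min. After fixation and permeabilization, cells were stained for cdc25c pSer198 with a PE secondary and read by flow cytometry, 10,000 cells per well.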

Setting [3] is: read-out: IC50 in biochemical in vitro PLK1 ELISA assay (less than 10 μM).
Setting [4] is: read-out: IC50 in biochemical ELISA assay (less than 0.01 μM).

T1 sequence (P53350 whole entry): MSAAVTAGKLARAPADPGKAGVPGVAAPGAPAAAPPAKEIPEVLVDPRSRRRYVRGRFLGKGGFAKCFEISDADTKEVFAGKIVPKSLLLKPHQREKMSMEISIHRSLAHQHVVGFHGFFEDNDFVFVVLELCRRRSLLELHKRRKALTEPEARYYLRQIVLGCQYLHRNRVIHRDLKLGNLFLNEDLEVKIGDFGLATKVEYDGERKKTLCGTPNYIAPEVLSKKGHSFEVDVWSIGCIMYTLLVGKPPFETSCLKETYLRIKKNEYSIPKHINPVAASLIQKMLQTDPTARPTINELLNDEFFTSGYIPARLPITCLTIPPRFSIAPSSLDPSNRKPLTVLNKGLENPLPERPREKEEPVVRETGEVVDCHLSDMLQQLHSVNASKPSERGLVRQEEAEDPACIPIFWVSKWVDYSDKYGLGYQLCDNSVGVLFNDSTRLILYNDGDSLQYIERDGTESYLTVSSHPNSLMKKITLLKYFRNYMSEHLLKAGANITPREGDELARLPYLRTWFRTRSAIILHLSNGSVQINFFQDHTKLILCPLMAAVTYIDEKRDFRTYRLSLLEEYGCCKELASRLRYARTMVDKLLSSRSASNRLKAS

On to `Cc1cc(Nc2ncc(C)c(Nc3ccc4c(n3)N(CC3CCCCC3)C(=O)CO4)n2)ccc1N1CCN(C)CC1` [compound 119, 4-(cyclohexylmethyl)-6-(5-methyl-2-(3-methyl-4-(4-methylpiperazin-1-yl)phenylamino)pyrimidin-4-ylamino)-2H-pyrido[3,2-b][1,4]oxazin-3(4H)-one], for which the IC50 at PLK1 [1] and against PLK1 [2] was ≥ 10 µM in each case.
Take `CN1CCN(c2cccc(Nc3ncc(F)c(Nc4ccc5c(n4)N(Cc4ccccc4)C(=O)CO5)n3)c2)CC1` [compound 120, 4-benzyl-6-(5-fluoro-2-(3-(4-methylpiperazin-1-yl)phenylamino)pyrimidin-4-ylamino)-2H-pyrido[3,2-b][1,4]oxazin-3(4H)-one]: the IC50 at PLK1 [1] and against PLK1 [2] was 0.5 to 5 µM throughout. Besides, the negative logarithm of the IC50 (pIC50) (as a rule, the IC50 on a negative log10 scale, so that one unit is a factor of ten) on PLK1 [1] (setting [3]) was > 5.00.
For `Cc1cc(Nc2ncc(C)c(Nc3ccc4c(n3)N(Cc3ccccc3)C(=O)CO4)n2)ccc1N1CCN(C)CC1` [compound 121, 4-benzyl-6-(5-methyl-2-(3-methyl-4-(4-methylpiperazin-1-yl)phenylamino)pyrimidin-4-ylamino)-2H-pyrido[3,2-b][1,4]oxazin-3(4H)-one], the figures for the IC50 on PLK1 [1] and against PLK1 [2] were ≥ 10 µM and 0.5 to 5 µM, respectively.
As to `Cc1cnc(Nc2cccc(N3CCN(C)CC3)c2)nc1Nc1ccc2c(n1)N(Cc1ccccc1)C(=O)CO2` [compound 122, 4-benzyl-6-(5-methyl-2-(3-(4-methylpiperazin-1-yl)phenylamino)pyrimidin-4-ylamino)-2H-pyrido[3,2-b][1,4]oxazin-3(4H)-one], the IC50 (in general, the concentration that gives 50% inhibition) on PLK1 [1] was < 0.5 µM; at PLK1 [2], 0.5 to 5 µM. Moreover, the pIC50 is > 8.00 at PLK1 [1] (setting [4]) and > 5.00 at PLK1 [1] (setting [3]).
Take `COc1ccc(CN2C(=O)COc3ccc(Nc4nc(Nc5cccc(N6CCN(C)CC6)c5)ncc4F)nc32)cc1` [compound 123, 6-(5-fluoro-2-(3-(4-methylpiperazin-1-yl)phenylamino)pyrimidin-4-ylamino)-4-(4-methoxybenzyl)-2H-pyrido[3,2-b][1,4]oxazin-3(4H)-one]: the 50% inhibitory concentration (IC50) at PLK1 [1] and against PLK1 [2] was ≥ 10 µM in each case.
Take `COc1ccc(CN2C(=O)COc3ccc(Nc4nc(Nc5ccc(N6CCN(C)CC6)c(C)c5)ncc4F)nc32)cc1` [compound 124, 6-(5-fluoro-2-(3-methyl-4-(4-methylpiperazin-1-yl)phenylamino)pyrimidin-4-ylamino)-4-(4-methoxybenzyl)-2H-pyrido[3,2-b][1,4]oxazin-3(4H)-one]: the IC50 at PLK1 [1] and on PLK1 [2] was ≥ 10 µM each time.
Consider `COc1ccc(CN2C(=O)COc3ccc(Nc4nc(Nc5cccc(N6CCN(C)CC6)c5)ncc4C)nc32)cc1` [compound 125, 4-(4-methoxybenzyl)-6-(5-methyl-2-(3-(4-methylpiperazin-1-yl)phenylamino)pyrimidin-4-ylamino)-2H-pyrido[3,2-b][1,4]oxazin-3(4H)-one], for which the IC50 at PLK1 [1] was 5 to 10 µM; against PLK1 [2], ≥ 10 µM. Moreover, the pIC50 on PLK1 [1] (setting [3]) was > 5.00.
Turning to `COc1ccc(CN2C(=O)COc3ccc(Nc4nc(Nc5ccc(N6CCN(C)CC6)c(C)c5)ncc4C)nc32)cc1` [compound 126, 4-(4-methoxybenzyl)-6-(5-methyl-2-(3-methyl-4-(4-methylpiperazin-1-yl)phenylamino)pyrimidin-4-ylamino)-2H-pyrido[3,2-b][1,4]oxazin-3(4H)-one], the IC50 on PLK1 [1] was ≥ 10 µM; against PLK1 [2] it was 0.5 to 5 µM.
Take `C#CCN1C(=O)COc2ccc(Nc3nc(Nc4cccc(N5CCN(C)CC5)c4)ncc3C)nc21` [compound 127, 6-(5-methyl-2-(3-(4-methylpiperazin-1-yl)phenylamino)pyrimidin-4-ylamino)-4-(prop-2-ynyl)-2H-pyrido[3,2-b][1,4]oxazin-3(4H)-one]: the IC50 on PLK1 [1] and against PLK1 [2] was < 0.5 µM in each case. Besides, the figures for the pIC50 on PLK1 [1] (setting [4]) and at PLK1 [1] (setting [3]) were > 8.00 and > 5.00, respectively.
